Our source for the IC50, Activity and selectivity ratio values is ChEMBL document CHEMBL1770093, “Potent antiprotozoal activity of a novel semi-synthetic berberine derivative” (Bioorg Med Chem Lett, 2011).

Where a name gives a salt, the structure may show the parent alone.

In data set [1] the test system is Leishmania amazonensis. Put plainly: Antileishmanial activity against intracellular Leishmania amazonensis infected in mouse peritoneal macrophages. It is filed as functional, organism-based.
Data set [2] has as its system Trypanosoma brucei brucei. Description: Antitrypanosomal activity against bloodstream form of Trypanosoma brucei brucei. It is filed as functional, organism-based.
The subject of a further data set is Plasmodium falciparum. Put plainly: Antimalarial activity against Plasmodium falciparum by flow cytometry. It is filed as functional, organism-based.
Data set [3] concerns Leishmania amazonensis. Put plainly: Antileishmanial activity against Leishmania amazonensis infected in mouse visceral leishmaniasis model assessed as decrease in parasitemia level in liver at 10 mg/kg/day, ip administered 5 times. Details: scale not given: the % may be the effect or the level left. The settings on record: route intraperitoneal. Type of data set: functional.

A short description of data set [4]: Selectivity index, ratio of IC50 for african green monkey Vero cells to IC50 for bloodstream form of Trypanosoma brucei brucei. It is filed as toxicity, cell-based. The settings on record: read-out: Ratio IC50.
Data set [5] relates to Leishmania amazonensis. Description: Antileishmanial activity against Leishmania amazonensis infected in mouse visceral leishmaniasis model assessed as decrease in parasitemia level in liver at 1 mg/kg/day, ip administered 5 times. The settings on record: route intraperitoneal. It is filed as functional. Details: scale not given: the % may be the effect or the level left.

The subject of the next data set is Vero. Description: Cytotoxicity against african green monkey Vero cells. It is filed as cell-based. The settings on record: Chlorocebus sabaeus.
Another data set has as its system Mus musculus. Description: Toxicity in Leishmania amazonensis infected mouse visceral leishmaniasis model at > 1 mg/kg/day, ip. Type of data set: organism-based. The settings on record: in vivo. Details: route intraperitoneal.

On to `COc1ccc2cc3[n+](cc2c1OC)CCc1cc2c(cc1-3)OCO2` [BERBERINE SULFATE], for which the results for the concentration for half-maximal inhibition (IC50) (in the data set on Leishmania amazonensis [1]; in data set [2]; in the data set with Plasmodium falciparum) were 17000 nM, 1100 nM and 800 nM, respectively.
As for `CCCCCCCCCCCCCCCCOP(=O)([O-])OCC[N+](C)(C)C` [MILTEFOSINE], the Activity in the data set with Leishmania amazonensis [3] was 98%.
For `C[C@@H]1[C@H](O)[C@@H](C)/C=C/C=C/C=C/C=C/C=C/C=C/C=C/[C@H](O[C@@H]2O[C@H](C)[C@@H](O)[C@H](N)[C@@H]2O)C[C@@H]2O[C@](O)(C[C@@H](O)C[C@@H](O)[C@H](O)CC[C@@H](O)C[C@@H](O)CC(=O)O[C@H]1C)C[C@H](O)[C@H]2C(=O)O` [AMPHOTERICIN B], the half-maximal inhibitory concentration (IC50) with Leishmania amazonensis [1] amounted to 120 nM.
`CCC1(CC)c2c(ccc(OC)c2OC)C(=O)c2c3cc4c(cc3cc[n+]21)OCO4.[Cl-]`: the selectivity ratio in data set [4] was determined as 10000. In addition, the IC50 was determined as 180 nM in the data set on Leishmania amazonensis [1], 9.1 nM in data set [2], 91000 nM in the data set on Vero and 36 nM in the data set with Plasmodium falciparum. In addition, the Activity in the data set with Leishmania amazonensis [5] is 47%; with Mus musculus, “Toxic”.
On to `Cc1ccc(C(=O)Nc2ccc(S(=O)(=O)O)c3cc(S(=O)(=O)O)cc(S(=O)(=O)O)c23)cc1NC(=O)c1cccc(NC(=O)Nc2cccc(C(=O)Nc3cc(C(=O)Nc4ccc(S(=O)(=O)O)c5cc(S(=O)(=O)O)cc(S(=O)(=O)O)c45)ccc3C)c2)c1` [SURAMIN], for which inhibition in data set [2] was half-maximal at 250 nM (IC50).
